1 molecule from US20160122320A1, “USEFUL COMBINATIONS OF MONOBACTAM ANTIBIOTICS WITH BETA-LACTAMASE INHIBITORS” (Basilea Pharmaceutica AG, priority 2005, published 2016) can be followed below.

Holding throughout (assay): MIC, NCCLS broth microdilution
Format in all cases: cell-based

Assay [1] concerns Pseudomonas aeruginosa MK1184. The settings on record: with 102 and sulbactam.
In assay [2] the test system is Enterobacter aerogenes B1.
In another assay the test system is Serratia marcescens S6.
The subject of assay [3] is Pseudomonas aeruginosa 1973E. The procedure, abridged:
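Broth microdilution per NCCLS M7-A5, final DMSO ≤1%, overnight incubation at 30° C. or 37° C. MIC is the lowest concentration completely inhibiting visible growth, read by eye. In combination tests, formula I compounds were serially diluted with formula II and III-XIII partners held at 4 μg/mL each.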

A further assay deals with Acinetobacter sp. J2. The settings on record: Acinetobacter baumannii J2.
Assay [4] relates to Klebsiella pneumoniae CF104.
For assay [5], the system named is Stenotrophomonas malthophilia 1AC736. Conditions: Stenotrophomonas maltophilia 1AC736.
The subject of assay [6] is Enterobacter aerogenes Zayakosky. The settings on record: Enterobacter aerogenes Zayakosky; + compound 323 and sulbactam, 4 mg/L each.

As for `C[C@H]1[C@H](NC(=O)/C(=N\OC(C)(C)C(=O)O)c2csc(N)n2)C(=O)N1S(=O)(=O)O` [Aztreonam, aztreonam, reference compound], the “MIC of antibiotic at fixed inhibitor concentration of 4 mg/L” value in assay [1] worked out at 16 µg/mL; in the assay with Serratia marcescens S6 (with 102 and clavulanate) it was 2 µg/mL; with Serratia marcescens S6 (with 102 and sulbactam), 2 µg/mL; in assay [3] (with 102 and clavulanate), 8 µg/mL; in assay [3] (with 102 and sulbactam), 4 µg/mL; in the assay on Acinetobacter sp. J2 (with 102 and clavulanate) it was 16 µg/mL. Besides, the “MIC of antibiotic at fixed inhibitor concentration of 4 mg/L” value is 4 µg/mL in the assay on Acinetobacter sp. J2 (with 102 and sulbactam); 0.5 µg/mL in assay [4] (with 102 and clavulanate); 1 µg/mL in assay [4] (with 102 and sulbactam); 4 µg/mL in assay [5] (with 102 and clavulanate); 8 µg/mL in assay [5] (with 102 and sulbactam). Also, the “Minimal Inhibitory Concentration of antibiotic at fixed inhibitor concentration of 4 mg/L” value in assay [2] (+ compound 206 4 mg/L) is given as 8 mg/L; in assay [2] (+ compound 323 and sulbactam, 4 mg/L each), 8 mg/L; in assay [6] it was 8 mg/L. The MIC of antibiotic in assay [3] (antibiotic alone, no inhibitor) worked out at 8 µg/mL.
